The values below come from article PMC5765548 (Journal of medicinal chemistry, 2017).

The structures appear in SMILES notation. pIC50: −log10 of the molar value.

In one assay the target is T1, ALDH1A1 (Homo sapiens, UniProt P00352).
T1 sequence (P00352 1-501): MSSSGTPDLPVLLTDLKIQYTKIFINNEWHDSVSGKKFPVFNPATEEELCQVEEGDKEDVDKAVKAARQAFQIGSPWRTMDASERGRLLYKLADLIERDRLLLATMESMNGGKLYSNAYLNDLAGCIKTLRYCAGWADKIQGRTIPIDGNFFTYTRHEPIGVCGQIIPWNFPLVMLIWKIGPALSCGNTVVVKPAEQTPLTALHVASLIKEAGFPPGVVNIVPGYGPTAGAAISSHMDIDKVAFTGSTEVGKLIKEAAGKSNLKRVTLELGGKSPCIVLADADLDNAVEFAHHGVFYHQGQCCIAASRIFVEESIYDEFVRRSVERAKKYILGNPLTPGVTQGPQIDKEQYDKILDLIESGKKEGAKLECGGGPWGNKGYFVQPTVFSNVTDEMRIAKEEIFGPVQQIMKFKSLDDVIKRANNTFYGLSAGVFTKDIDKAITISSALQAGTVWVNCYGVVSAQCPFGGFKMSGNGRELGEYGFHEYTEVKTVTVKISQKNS
Description: ALDH1A1 dehydrogenase activity, NADH formation at 340 nm. Format: biochemical. To be noted: read-out: IC50 ALDH1A1; 100 μM propionaldehyde, 200 μM NAD+, 1% DMSO, pH 7.5, 25 °C.

The target of another assay is T2, ALDH1L1 (rat) (Rattus norvegicus, UniProt P28037).
T2 sequence (P28037 1-902): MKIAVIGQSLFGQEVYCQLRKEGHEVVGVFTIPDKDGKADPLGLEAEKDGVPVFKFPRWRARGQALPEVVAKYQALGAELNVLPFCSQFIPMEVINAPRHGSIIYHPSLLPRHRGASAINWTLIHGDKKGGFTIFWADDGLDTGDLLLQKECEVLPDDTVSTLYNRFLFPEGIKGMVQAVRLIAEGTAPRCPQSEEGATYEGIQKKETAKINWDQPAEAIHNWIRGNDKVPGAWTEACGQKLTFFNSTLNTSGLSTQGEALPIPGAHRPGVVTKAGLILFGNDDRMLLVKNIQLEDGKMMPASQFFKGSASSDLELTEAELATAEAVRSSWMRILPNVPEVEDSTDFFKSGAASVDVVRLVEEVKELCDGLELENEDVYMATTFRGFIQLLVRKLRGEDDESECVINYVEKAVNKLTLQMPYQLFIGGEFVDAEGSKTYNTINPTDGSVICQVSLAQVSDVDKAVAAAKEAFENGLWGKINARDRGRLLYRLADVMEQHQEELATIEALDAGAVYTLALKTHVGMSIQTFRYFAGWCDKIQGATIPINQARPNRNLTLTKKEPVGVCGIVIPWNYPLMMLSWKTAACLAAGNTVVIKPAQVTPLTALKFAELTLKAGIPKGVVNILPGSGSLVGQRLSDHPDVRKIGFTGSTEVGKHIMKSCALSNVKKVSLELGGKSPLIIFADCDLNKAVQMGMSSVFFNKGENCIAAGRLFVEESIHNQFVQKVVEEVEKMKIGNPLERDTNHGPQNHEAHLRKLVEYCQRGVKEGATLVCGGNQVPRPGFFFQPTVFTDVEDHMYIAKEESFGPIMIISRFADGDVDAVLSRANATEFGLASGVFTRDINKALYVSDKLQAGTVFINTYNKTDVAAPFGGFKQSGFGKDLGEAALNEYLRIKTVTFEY
The assay can be described thus: ALDH1L1 dehydrogenase activity, NADPH formation at 340 nm. The note with it: read-out: IC50 ALDH1L1 (rat); 4 mM propionaldehyde, 500 μM NADP+. Format: biochemical.

In the next assay the target is T3, ALDH3A1 (Homo sapiens, UniProt P30838).
T3 sequence (P30838 1-453): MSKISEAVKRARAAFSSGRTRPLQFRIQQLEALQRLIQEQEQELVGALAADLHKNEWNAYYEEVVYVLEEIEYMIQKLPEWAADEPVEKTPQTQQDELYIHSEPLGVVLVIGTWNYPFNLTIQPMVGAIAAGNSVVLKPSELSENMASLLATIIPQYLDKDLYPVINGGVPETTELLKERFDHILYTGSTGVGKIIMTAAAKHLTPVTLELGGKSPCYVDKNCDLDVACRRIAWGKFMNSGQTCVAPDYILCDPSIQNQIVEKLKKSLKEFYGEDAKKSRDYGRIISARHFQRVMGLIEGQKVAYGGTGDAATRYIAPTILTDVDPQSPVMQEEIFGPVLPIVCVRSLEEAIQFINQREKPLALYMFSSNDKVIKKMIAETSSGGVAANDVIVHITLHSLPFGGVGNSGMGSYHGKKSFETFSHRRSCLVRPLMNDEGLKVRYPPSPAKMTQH
The assay can be described thus: ALDH3A1 dehydrogenase activity. To be noted: read-out: IC50 ALDH3A1; 300 μM benzaldehyde, 300 μM NADP+, pH 7.5. Format: biochemical.

The target of assay [1] is T4, ALDH2 (Homo sapiens, UniProt P05091).
T4 sequence (P05091 18-517): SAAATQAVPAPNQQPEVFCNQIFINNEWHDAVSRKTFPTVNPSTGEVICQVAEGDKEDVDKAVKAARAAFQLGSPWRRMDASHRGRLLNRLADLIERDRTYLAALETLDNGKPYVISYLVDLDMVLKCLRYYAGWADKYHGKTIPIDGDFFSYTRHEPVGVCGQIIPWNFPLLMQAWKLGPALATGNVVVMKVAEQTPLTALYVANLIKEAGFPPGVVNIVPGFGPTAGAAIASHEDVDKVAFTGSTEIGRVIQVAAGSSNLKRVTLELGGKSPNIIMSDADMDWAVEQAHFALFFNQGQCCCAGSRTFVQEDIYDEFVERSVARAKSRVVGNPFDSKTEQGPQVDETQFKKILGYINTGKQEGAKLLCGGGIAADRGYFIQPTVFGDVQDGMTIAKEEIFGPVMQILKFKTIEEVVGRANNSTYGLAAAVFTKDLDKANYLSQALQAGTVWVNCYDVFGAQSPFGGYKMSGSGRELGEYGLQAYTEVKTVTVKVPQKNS
The note with it: 1 mM propionaldehyde.

The target of assay [2] is T4, ALDH2. The note with it: prior work; cited from earlier work.

The term pIC50 denotes the negative decadic logarithm of the IC50, by convention in mol/L. With `Cc1oc2cc3oc(=O)c(C)c(C)c3cc2c1C` [Compound 3], the pIC50 at ALDH1A1, on ALDH1L1 (rat) and at ALDH3A1 was less than 4.00 each time. Further, the “Mode of inhibition of ALDH2 versus varied NAD+” value at ALDH2 [1] is reported as “competitive”. Moreover, the “Mode of inhibition of ALDH2 with respect to varied propionaldehyde” value at ALDH2 [2] was “non-competitive (mixed-type)”.
